Source: the supplement of paper PMC10307832

Assays:
Assay in all cases: relative viability (nuclei count vs DMSO), 5 days (fraction); higher = more cells survive
[1] = compound: CC(C)N(CCCNC(=O)Nc1ccc(C(C)(C)C)cc1)C[C@H]1O[C@@H](n2ccc3c(N)ncnc32)[C@H](O)[C@@H]1O + O=C(CCCCCCC(=O)Nc1ccccc1)NO [Vorinostat] (partner 1 µM)
Summary of the method: (§1)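 Dosing by pin tool came one day after lung cancer cell lines were seeded in 1536-well plates, using either one drug or a fixed anchor-drug dose plus five library-drug doses (not always all listed) in √10 steps. After 5 days, nuclei were counted on 4× images. Relative viability is treated-well nuclei count divided by vehicle-well nuclei count, and values are medians of duplicate plates.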

Shikonin + Olaparib = compound: CC(C)=CC[C@@H](O)C1=CC(=O)c2c(O)ccc(O)c2C1=O [Shikonin] + O=C(c1cc(Cc2n[nH]c(=O)c3ccccc23)ccc1F)N1CCN(C(=O)C2CC2)CC1 [Olaparib] (partner 8 µM)
Summary of the method: as §1

Shikonin + Pemetrexed = compound: CC(C)=CC[C@@H](O)C1=CC(=O)c2c(O)ccc(O)c2C1=O [Shikonin] + Nc1nc2[nH]cc(CCc3ccc(C(=O)N[C@@H](CCC(=O)O)C(=O)O)cc3)c2c(=O)[nH]1 [Pemetrexed] (partner 0.2 µM)
Summary of the method: as §1

[2] = compound: CC(C)N(CCCNC(=O)Nc1ccc(C(C)(C)C)cc1)C[C@H]1O[C@@H](n2ccc3c(N)ncnc32)[C@H](O)[C@@H]1O + CS(=O)(=O)N1CCN(Cc2cc3nc(-c4cccc5[nH]ncc45)nc(N4CCOCC4)c3s2)CC1 [Pictilisib] (partner 1 µM)
Summary of the method: as §1

Cell Line	relative viability ([1]; first compound 0.08 µM)	relative viability ([1]; first compound 0.253 µM)	relative viability ([1]; first compound 0.8 µM)	relative viability ([1]; first compound 2.53 µM)	relative viability ([1]; first compound 8 µM)	relative viability (Shikonin + Olaparib; first compound 0.01 µM)	relative viability (Shikonin + Olaparib; first compound 0.1 µM)	relative viability (Shikonin + Olaparib; first compound 0.3162 µM)	relative viability (Shikonin + Olaparib; first compound 1 µM)	relative viability (Shikonin + Pemetrexed; first compound 0.01 µM)	relative viability (Shikonin + Pemetrexed; first compound 0.1 µM)	relative viability (Shikonin + Pemetrexed; first compound 0.3162 µM)	relative viability (Shikonin + Pemetrexed; first compound 1 µM)	relative viability ([2]; first compound 0.08 µM)	relative viability ([2]; first compound 0.253 µM)	relative viability ([2]; first compound 0.8 µM)	relative viability ([2]; first compound 2.53 µM)	relative viability ([2]; first compound 8 µM)
NCI-H358	0.725	0.629	0.721	0.714	0.613	0.622	0.619	0.539	0.219	0.159	0.182	0.172	0.154	0.356	0.335	0.317	0.359	0.342
NCI-H441	0.811	0.641		0.784	0.654	0.647	0.637	0.626	0.531	0.282	0.223	0.252	0.266	0.442	0.423	0.361	0.539	0.47
NCI-H460	0.719	0.727	0.746	0.701	0.734	0.584	0.615	0.515	0.39	0.0561	0.0603	0.06	0.063	0.305	0.391	0.335	0.381	0.38
NCI-H520	0.849	0.711	0.801	0.753	0.843	0.323	0.368	0.283	0.295	0.801	0.784	0.689	0.604	0.273	0.247	0.215	0.282	0.301
NCI-H596	0.601	0.427	0.39	0.674	0.714	0.547	0.728	0.709	0.605	0.502	0.536	0.414	0.475	0.388	0.412	0.173	0.355	0.414
NCI-H647	0.415	0.549	0.472	0.598	0.518	0.723	0.597	0.488	0.47	0.194	0.174	0.183	0.156	0.406		0.403	0.45	0.372
NCI-H650	0.414	0.444	0.459	0.426	0.401	0.373	0.406	0.399	0.345	0.87	0.987	1.13	0.857	0.807	0.907	0.887	0.867	0.824
